The target of one assay is CDK2/Cyclin E1 (Homo sapiens, UniProt P24941). The assay is described as follows: CDK2/Cyclin E1 Biochemical Assay (TR-FRET), 0.060 mM ATP. To be noted: 0.15 μM Rb (Ser780)-biotin substrate, pH7.0, 60 min preincubation, 120 min reaction, room temperature. The method, boiled down:
(§1)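 Phosphorylation of a biotin-tagged Rb Ser780 peptide (0.15 μM) is measured by time-resolved FRET between a europium-labelled phospho-specific antibody and streptavidin-XL665. Compound (0–10 μM) sits with enzyme 60 min first; the kinase reaction then proceeds 120 min at room temperature, pH 7.0.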
A general note: Time-resolved FRET reads energy transfer from a long-lived donor to a nearby acceptor.

The target in another assay is CDK1/Cyclin B1 (Homo sapiens, UniProt P06493). The assay can be described thus: CDK1/Cyclin B1 Biochemical Assay (TR-FRET), 0.015 mM ATP. Conditions: 0.15 μM Rb (Ser780)-biotin substrate, pH7.0, 60 min preincubation, 120 min reaction, room temperature. In outline: as §1

The source of these data is patent US20260297080A1, “BICYCLIC COMPOUNDS AS CDK INHIBITORS” (BeOne Medicines I GmbH, priority 2022, published 2026).

Sequence of CDK1/Cyclin B1 (P06493 whole entry): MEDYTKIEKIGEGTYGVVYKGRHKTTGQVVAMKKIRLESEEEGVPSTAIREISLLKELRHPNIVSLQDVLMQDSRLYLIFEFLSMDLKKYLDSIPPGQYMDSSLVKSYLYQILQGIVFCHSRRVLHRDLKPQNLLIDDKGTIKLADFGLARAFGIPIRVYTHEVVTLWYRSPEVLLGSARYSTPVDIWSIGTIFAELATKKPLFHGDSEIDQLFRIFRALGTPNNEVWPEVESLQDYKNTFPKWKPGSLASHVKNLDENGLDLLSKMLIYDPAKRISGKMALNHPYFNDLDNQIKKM
Sequence of CDK1/Cyclin B1 (P14635 whole entry partner): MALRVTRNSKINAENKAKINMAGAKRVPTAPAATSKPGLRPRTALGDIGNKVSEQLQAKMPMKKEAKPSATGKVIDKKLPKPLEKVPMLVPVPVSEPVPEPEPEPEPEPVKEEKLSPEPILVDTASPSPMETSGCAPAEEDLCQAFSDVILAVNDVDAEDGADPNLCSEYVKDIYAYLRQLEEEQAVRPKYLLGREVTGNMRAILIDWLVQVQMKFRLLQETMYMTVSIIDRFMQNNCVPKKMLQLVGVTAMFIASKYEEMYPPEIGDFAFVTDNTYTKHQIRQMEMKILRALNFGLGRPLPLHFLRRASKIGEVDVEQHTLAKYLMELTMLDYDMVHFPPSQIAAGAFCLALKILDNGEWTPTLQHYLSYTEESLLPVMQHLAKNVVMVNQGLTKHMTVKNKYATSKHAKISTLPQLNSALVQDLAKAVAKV

As usually defined, the IC50 is the midpoint of a concentration-inhibition curve. Read a low IC50 as higher potency. On to `C[C@]1(O)CC[C@@H](NC(=O)O[C@H]2CC[C@@H](c3cc(Nc4ccc5c(c4F)CNS5(=O)=O)n[nH]3)C2)CC1` (relative stereo) [Example 144, cis-3-(3-((4-fluoro-1,1-dioxido-2,3-dihydrobenzo[d]isothiazol-5-yl)amino)-1H-pyrazol-5-yl)cyclopentyl((1s,4s)-4-hydroxy-4-methylcyclohexyl)carbamate], for which the IC50 was found to be 0.0039 µM against CDK2/Cyclin E1 and 0.302 µM against CDK1/Cyclin B1.

Take `Cc1cc(Nc2cc([C@@H]3CC[C@H](OC(=O)NC(C)C)C3)[nH]n2)cc2c1NS(=O)(=O)C2` (relative stereo) [Example 242, cis-3-(3-((7-methyl-2,2-dioxido-1,3-dihydrobenzo[c]isothiazol-5-yl)amino)-1H-pyrazol-5-yl)cyclopentyl isopropylcarbamate]: the IC50 against CDK2/Cyclin E1 was determined as 0.0051 µM; at CDK1/Cyclin B1 it was 0.07 µM.

As for `CC1(NC(=O)O[C@H]2CC[C@@H](c3cc(Nc4ccc5c(c4F)CNS5(=O)=O)n[nH]3)C2)CCOC1` (single isomer, unassigned) [Example 162d, cis-3-(3-((4-fluoro-1,1-dioxido-2,3-dihydrobenzo[d]isothiazol-5-yl)amino)-1H-pyrazol-5-yl)cyclopentyl(3-methyltetrahydrofuran-3-yl)carbamate], the IC50 against CDK2/Cyclin E1 amounted to 0.0037 µM; against CDK1/Cyclin B1, 0.158 µM.

On to `CN1c2ccc(Nc3cc([C@@H]4CC[C@H](OC(=O)NC5(C)CCOC5)C4)[nH]n3)c(F)c2CS1(=O)=O` (single isomer, unassigned) [Example 349c, cis-3-(3-((4-fluoro-1-methyl-2,2-dioxido-1,3-dihydrobenzo[c]isothiazol-5-yl)amino)-1H-pyrazol-5-yl)cyclopentyl(3-methyltetrahydrofuran-3-yl)carbamate], for which the IC50 amounted to 0.0019 µM against CDK2/Cyclin E1 and 0.078 µM against CDK1/Cyclin B1.

On to `CC(C)(O)CNC(=O)O[C@H]1CC[C@@H](c2cc(Nc3ccc4c(c3F)CNS4(=O)=O)n[nH]2)C1` (relative stereo) [Example 146, cis-3-(3-((4-fluoro-1,1-dioxido-2,3-dihydrobenzo[d]isothiazol-5-yl)amino)-1H-pyrazol-5-yl)cyclopentyl(2-hydroxy-2-methylpropyl)carbamate], for which the IC50 against CDK2/Cyclin E1 turned out to be 0.0081 µM; at CDK1/Cyclin B1 it was 0.323 µM.

On to `CC(C)NC(=O)O[C@H]1CC[C@@H](c2cc(Nc3cc4c(cc3F)NS(=O)(=O)C4)n[nH]2)C1` (single isomer, unassigned) [Example 292a, cis-3-(3-((6-fluoro-2,2-dioxido-1,3-dihydrobenzo[c]isothiazol-5-yl)amino)-1H-pyrazol-5-yl)cyclopentyl isopropylcarbamate], for which the IC50 amounted to 0.013 µM on CDK2/Cyclin E1 and 1.41 µM on CDK1/Cyclin B1.

For `Cc1c(Nc2cc([C@@H]3CC[C@H](OC(=O)NC(C)C)C3)[nH]n2)ccc2c1S(=O)(=O)NC2` (relative stereo) [Example 353, cis-3-(3-((7-methyl-1,1-dioxido-2,3-dihydrobenzo[d]isothiazol-6-yl)amino)-1H-pyrazol-5-yl)cyclopentyl isopropylcarbamate], the IC50 against CDK2/Cyclin E1 was found to be 0.0024 µM; at CDK1/Cyclin B1, 0.093 µM.

With `CC(C)NC(=O)O[C@H]1CC[C@@H](c2cc(Nc3ccc4c(c3)S(=O)(=O)NC4C)[nH]n2)C1` (single isomer, unassigned) [Example 5a, cis-3-(5-((3-methyl-1,1-dioxido-2,3-dihydrobenzo[d]isothiazol-6-yl)amino)-1H-pyrazol-3-yl)cyclopentyl isopropylcarbamate], the IC50 is 0.0022 µM on CDK2/Cyclin E1 and 0.049 µM at CDK1/Cyclin B1.

Regarding `CC1(NC(=O)O[C@H]2C[C@@H](c3cc(Nc4cc5c(cc4F)S(=O)(=O)NC5)n[nH]3)C2)CC1` [Example 411, (1s,3s)-3-(3-((6-fluoro-1,1-dioxido-2,3-dihydrobenzo[d]isothiazol-5-yl)amino)-1H-pyrazol-5-yl)cyclobutyl(1-methylcyclopropyl)carbamate], the values for the IC50 against CDK2/Cyclin E1 and against CDK1/Cyclin B1 were 0.0094 µM and 0.386 µM, respectively.

For `CC1(NC(=O)O[C@H]2CC[C@@H](c3cc(Nc4ccc5c(c4F)CNS5(=O)=O)n[nH]3)C2)CCOC1` (single isomer, unassigned) [Example 162a, cis-3-(3-((4-fluoro-1,1-dioxido-2,3-dihydrobenzo[d]isothiazol-5-yl)amino)-1H-pyrazol-5-yl)cyclopentyl(3-methyltetrahydrofuran-3-yl)carbamate], the IC50 is 0.0034 µM on CDK2/Cyclin E1 and 0.456 µM on CDK1/Cyclin B1.

In the case of `CC[C@H](C)NC(=O)O[C@H]1CC[C@@H](c2cc(Nc3ccc4c(c3)CCS(=O)(=O)N4)n[nH]2)C1` (relative stereo) [Example 248, cis-3-(3-((2,2-dioxido-3,4-dihydro-1H-benzo[c][1,2]thiazin-6-yl)amino)-1H-pyrazol-5-yl)cyclopentyl((S)-sec-butyl)carbamate], the IC50 on CDK2/Cyclin E1 turned out to be 0.0026 µM; against CDK1/Cyclin B1, 0.049 µM.

As for `CC(C)NC(=O)O[C@H]1CC[C@@H](c2cc(Nc3ccc4c(c3F)CNS4(=O)=O)n[nH]2)C1` (single isomer, unassigned) [Example 9a, cis-3-(3-((4-fluoro-1,1-dioxido-2,3-dihydrobenzo[d]isothiazol-5-yl)amino)-1H-pyrazol-5-yl)cyclopentyl isopropylcarbamate], the IC50 on CDK2/Cyclin E1 stood at 0.0045 µM; at CDK1/Cyclin B1 it was 0.375 µM.

With `CC[C@H](C)NC(=O)O[C@H]1CC[C@@H](c2cc(Nc3ccc4c(c3F)CN(C)S4(=O)=O)n[nH]2)C1` (single isomer, unassigned) [Example 123b], the half-inhibitory concentration (IC50) against CDK2/Cyclin E1 amounted to 0.0026 µM; against CDK1/Cyclin B1, 0.219 µM.

`CC[C@H](C)NC(=O)O[C@H]1CC[C@@H](c2cc(Nc3ccc4c(c3F)CN(C3COC3)S4(=O)=O)n[nH]2)C1` (single isomer, unassigned) [Example 134a]: the IC50 turned out to be 0.0038 µM on CDK2/Cyclin E1 and 0.488 µM against CDK1/Cyclin B1.

`CC(C)CN1Cc2c(ccc(Nc3cc([C@@H]4CC[C@H](OC(=O)NC(C)C)C4)[nH]n3)c2F)S1(=O)=O` (relative stereo) [Example 101, cis-3-(3-((4-fluoro-2-isobutyl-1,1-dioxido-2,3-dihydrobenzo[d]isothiazol-5-yl)amino)-1H-pyrazol-5-yl)cyclopentyl isopropylcarbamate]: the IC50 against CDK2/Cyclin E1 worked out at 0.01 µM; against CDK1/Cyclin B1, 1.02 µM.

In the case of `CC(C)NC(=O)O[C@H]1CC[C@@H](c2cc(Nc3ccc4c(c3)C(C)(C)NS4(=O)=O)n[nH]2)C1` (relative stereo) [Example 6, cis-3-(3-((3,3-dimethyl-1,1-dioxido-2,3-dihydrobenzo[d]isothiazol-5-yl)amino)-1H-pyrazol-5-yl)cyclopentyl isopropylcarbamate], the values for the IC50 against CDK2/Cyclin E1 and on CDK1/Cyclin B1 were 0.0065 µM and 0.108 µM, respectively.

Turning to `CC(NC(=O)O[C@H]1CC[C@@H](c2cc(Nc3ccc4c(c3F)CN(C)S4(=O)=O)n[nH]2)C1)C1COC1` (relative stereo) [Example 337, cis-3-(3-((4-fluoro-2-methyl-1,1-dioxido-2,3-dihydrobenzo[d]isothiazol-5-yl)amino)-1H-pyrazol-5-yl)cyclopentyl(1-(oxetan-3-yl)ethyl)carbamate], the IC50 against CDK2/Cyclin E1 turned out to be 0.042 µM; at CDK1/Cyclin B1, 1.73 µM.
